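Five concentrations, 48 hours, 96-well plates. At the TGI there is no net growth.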
How the values were obtained:
Assay in all cases: NCI anticancer screen, dose series, 48 h
[1] = system: HCT-15 colon
[2] = system: HOP-62 NSCLC
[3] = system: SK-MEL-5 melanoma
[4] = system: IGROV1 ovarian
[5] = system: OVCAR-4 ovarian
[6] = system: EKVX NSCLC
[7] = system: MDA-MB-435
[8] = system: 786-0 renal
[9] = system: RXF 393 renal
[10] = system: T-47D breast
[11] = system: MOLT-4 leukemia
[12] = system: A549 NSCLC
[13] = system: CAKI-1 renal
[14] = system: U251 CNS
[15] = system: RPMI-8226 leukemia
[16] = system: UACC-62 melanoma
[17] = system: UO-31 renal
[18] = system: SK-MEL-28 melanoma
[19] = system: K-562 leukemia
[20] = system: KM12 colon
[21] = system: SF-295 CNS
[22] = system: MALME-3M melanoma
[23] = system: SF-268 CNS
[24] = system: SK-MEL-2 melanoma
[25] = system: SF-539 CNS
[26] = system: M14 melanoma
[27] = system: BT-549 breast
[28] = system: MDA-MB-231 breast
[29] = system: A498 renal
[30] = system: NCI/ADR-RES ovarian
[31] = system: UACC-257 melanoma
[32] = system: OVCAR-5 ovarian
[33] = system: MCF7 breast
[34] = system: CCRF-CEM leukemia
[35] = system: OVCAR-3 ovarian
[36] = system: PC-3 prostate
[37] = system: SW-620 colon
[38] = system: NCI-H23 lung
[39] = system: HS 578T breast
[40] = system: MDA-N
[41] = system: SK-OV-3 ovarian
[42] = system: COLO 205 colon
[43] = system: OVCAR-8 ovarian
[44] = system: ACHN renal
[45] = system: SNB-19 CNS
[46] = system: HCT-116 colon
[47] = system: HCC-2998 colon
[48] = system: SNB-75 CNS
[49] = system: HOP-92 NSCLC
[50] = system: SN12C renal
[51] = system: HL-60(TB) leukemia
[52] = system: SR leukemia
[53] = system: HT29 colon
[54] = system: DU-145 prostate
[55] = system: NCI-H226 lung
[56] = system: TK-10 renal
[57] = system: NCI-H460 lung
[58] = system: LOX IMVI melanoma
[59] = system: NCI-H522 lung

With `CCCCCCC(C)c1ccc2c(c1)C(=O)c1nc3ccncc3c(=O)n1-2` (centres undefined) the TGI [1] was > 57.7 µM, the TGI [2] was 35.7 µM and the TGI [3] was > 25.4 µM. For the same molecule, the TGI [4] was > 34.4 µM, the TGI [5] was 10.3 µM and the TGI [6] was > 43.4 µM. For the same molecule, the TGI [7] was 1.17 µM, the TGI [8] was > 45.3 µM and the TGI [9] was 14.7 µM. For the same molecule, the TGI [10] was > 40.8 µM, the TGI [11] was 4.09 µM and the TGI [12] was 35.2 µM. The TGI [13] was > 39.6 µM, the TGI [14] was > 45 µM and the TGI [15] was 3.97 µM. The TGI [16] was > 36.9 µM, the TGI [17] was > 35.7 µM and the TGI [18] was > 31.5 µM. For the same molecule, the TGI [19] was 2910 nM, the TGI [20] was > 30.5 µM and the TGI [21] was 20.2 µM. The TGI [22] was 900 nM, the TGI [23] was > 100 µM and the TGI [24] was 18.7 µM. The TGI [25] was 20.3 µM, the TGI [26] was 11.4 µM and the TGI [27] was > 33.8 µM. The TGI [28] was > 100 µM, the TGI [29] was > 100 µM and the TGI [30] was 15.7 µM. The TGI [31] was > 32.1 µM, the TGI [32] was 21.7 µM and the TGI [33] was 32.7 µM. The TGI [34] was 5.83 µM, the TGI [35] was 9.12 µM and the TGI [36] was 16.1 µM. The TGI [37] was > 30.6 µM, the TGI [38] was > 31.4 µM and the TGI [39] was 25.6 µM. For the same molecule, the TGI [40] was 0.6 µM, the TGI [41] was > 100 µM and the TGI [42] was > 39.1 µM. The TGI [43] was > 45.2 µM, the TGI [44] was > 29.5 µM and the TGI [45] was > 33 µM. The TGI [46] was > 36.8 µM, the TGI [47] was > 20.5 µM and the TGI [48] was > 32.2 µM. The TGI [49] was > 100 µM, the TGI [50] was > 34.9 µM and the TGI [51] was 1180 nM. The TGI [52] was 2570 nM, the TGI [53] was 8.78 µM and the TGI [54] was > 35.1 µM. For the same molecule, the TGI [55] was > 32.3 µM, the TGI [56] was > 65.8 µM and the TGI [57] was > 34.7 µM.

For `N#Cc1c(C#N)c(SSc2c(C#N)c(C#N)c(N)n2-c2ccc(F)cc2)n(-c2ccc(F)cc2)c1N`, the TGI [58] was 59.9 µM, the TGI [1] was 4.25 µM and the TGI [2] was 33.2 µM. For the same molecule, the TGI [3] was 31.1 µM, the TGI [4] was 37.9 µM and the TGI [5] was > 100 µM. The TGI [6] was 5.13 µM, the TGI [7] was 19.2 µM and the TGI [8] was 3.22 µM. The TGI [9] was 8.48 µM, the TGI [10] was 7.96 µM and the TGI [11] was 2.99 µM. The TGI [12] was 36.7 µM, the TGI [13] was 21.1 µM and the TGI [14] was 40.1 µM. It also gave a TGI [16] of 31.7 µM, a TGI [17] of 3.87 µM and a TGI [18] of 19.9 µM. It also gave a TGI [20] of 44.3 µM, a TGI [59] of 4.11 µM and a TGI [21] of 31.8 µM. The TGI [22] was 3280 nM, the TGI [23] was 48.2 µM and the TGI [24] was 44 µM. The TGI [25] was 35.6 µM, the TGI [26] was 9.07 µM and the TGI [27] was 7.2 µM. The TGI [28] was 37.6 µM, the TGI [29] was 18.9 µM and the TGI [30] was 59.4 µM. For the same molecule, the TGI [31] was 32.5 µM, the TGI [32] was 30.9 µM and the TGI [33] was > 24.8 µM. It also gave a TGI [34] of 4.62 µM, a TGI [35] of 6.92 µM and a TGI [36] of 33.3 µM. For the same molecule, the TGI [37] was 5.59 µM, the TGI [38] was 14.3 µM and the TGI [39] was > 58.3 µM. For the same molecule, the TGI [40] was 10.8 µM, the TGI [41] was 31.4 µM and the TGI [42] was 3.76 µM. For the same molecule, the TGI [43] was 32.4 µM, the TGI [44] was 8.55 µM and the TGI [45] was 42.6 µM. For the same molecule, the TGI [46] was 3.38 µM, the TGI [47] was 45.3 µM and the TGI [48] was 32.6 µM. The TGI [49] was 7.82 µM, the TGI [50] was 31.5 µM and the TGI [51] was 4440 nM. It also gave a TGI [52] of 1980 nM, a TGI [53] of 36.5 µM and a TGI [54] of 30.6 µM. For the same molecule, the TGI [55] was 46 µM, the TGI [56] was 8.27 µM and the TGI [57] was 41.2 µM.

Reference: PubChem BioAssay (NCI)
